According to PMC10059905, “The Bioactivity of Xylene, Pyridine, and Pyrazole Aza Macrocycles against Three Representative Leishmania Species” (Pharmaceutics, 2023):
Like-named read-outs stand apart in the source and are kept apart here.

How the values were obtained:
[1] = tested on: L. braziliensis promastigote forms; experiment: In vitro activity against promastigote forms; format: cell-based; conditions: for IC50: 48 h, 27 °C, means of three separate experiments, read-out: Compound IC50 Promastigote Forms; for Selectivity Index Promastigote Forms: J774.2 Macrophage IC50/Parasite IC50
Method: (§1) Three Leishmania species were studied, each one as a pathogenic agent for each clinical form: L. donovani for VL, L. infantum for CL, and L. braziliensis for ML.
(§2) In order to perform this experiment, promastigotes were harvested in 24-well microplates and different drug concentrations were added in order to reach 12.5, 25, 50, and 100 µM and maintained at 27 °C for 48 h. They were counted after that time was elapsed in a Neubauer haemocytrometric chamber.

[2] = tested on: L. donovani promastigote forms; experiment: In vitro activity against promastigote forms; format: cell-based; conditions: for IC50: 48 h, 27 °C, means of three separated experiments, read-out: Compound IC50 Promastigote Forms; for Selectivity Index Promastigote Forms: J774.2 Macrophage IC50/Parasite IC50
Method: as §1, §2

[3] = tested on: L. infantum promastigote forms; experiment: In vitro activity against promastigote forms; format: cell-based; conditions: for IC50: 48 h, 27 °C, means of three separate experiments, read-out: Compound IC50 Promastigote Forms; for Selectivity Index Promastigote Forms: J774.2 Macrophage IC50/Parasite IC50
Method: as §1, §2

[4] = tested on: L. braziliensis amastigote forms; experiment: In vitro activity against amastigote forms in J774.2 macrophages; format: cell-based; conditions: for Selectivity Index Amastigote Forms: J774.2 Macrophage IC50/Parasite IC50; for IC50: in J774.2 macrophages, means of three separate experiments, read-out: Compound IC50 Amastigote Forms
Method: (§3) A similar method was used for the amastigote assay. First, J774.2 macrophages were harvested in 24-well microplates with round coverslips at the bottom, where cells will attach. Once cells are fixated, they are infected with promastigotes (10 per each macrophage cell) and compounds were added to reach the same final concentrations as in the previous experiment. After one day, promastigotes transform into amastigotes and microplates are maintained for two days at 37 °C. Once that time is elapsed, coverslips are collected and fixated to a microscope slide and dyed with Giemsa. Amastigotes are then counted using a microscope from a total of 200 random macrophages.

[5] = tested on: L. donovani amastigote forms; experiment: as above; format: cell-based; conditions: for Selectivity Index Amastigote Forms: J774.2 Macrophage IC50/Parasite IC50; for IC50: in J774.2 macrophages, means of three separated experiments, read-out: Compound IC50 Amastigote Forms
Method: as §3

[6] = tested on: L. infantum amastigote forms; experiment: as above; format: cell-based; conditions: for Selectivity Index Amastigote Forms: J774.2 Macrophage IC50/Parasite IC50; for IC50: in J774.2 macrophages, means of three separate experiments, read-out: Compound IC50 Amastigote Forms
Method: as §3

[7] = tested on: J774.2 macrophage cell line; experiment: Macrophage cytotoxicity; format: cell-based; conditions: J774.2 macrophages, means of three separate experiments, read-out: Macrophage Toxicity IC50
Description: Macrophages are cells naturally infected by Leishmania parasites. For that reason, they were used as host cell models, specifically the J774.2 macrophage cell line [European Collection of Authenticated Cell Cultures (ECACC) number 91051511]. Cells were used to test the cytotoxicity of the new compound (establishing IC50 via testing different drug concentrations on cells) and they were used for parasite infectivity assays.

[8] = tested on: L. infantum Fe-SOD; experiment: SOD inhibition assay (Beyer and Fridovich method); format: biochemical; conditions: L. infantum excreted Fe-SOD
Description: Superoxide dismutase (SOD) is a key enzyme for cell survival against oxidative stress. Host cells induce oxidative bursts to create reactive oxygen species (ROS) within parasite cells that are toxic to them. For that reason, Leishmania cells rely on SOD to counteract this defense. While vertebrate SOD is linked to a copper, zinc (Cu/Zn-SOD), or manganese atom (Mn-SOD), trypanosomatid SOD is linked to an iron atom (Fe-SOD). This difference makes SOD a perfect target for drugs: if they are able to reduce its activity, cell survival will be compromised. For testing, if drugs are able to reduce this enzymatic activity, promastigotes are largely harvested and then stressed in the same culture medium without calf serum, in order to trigger stress and make them excrete SOD. This SOD is collected and semi-purified by a method described in Martín-Montes et al. 2017 [10]. Excreted Fe-SOD was mixed with the different reagents of the Beyer and Fridovich method and measured in a UV spectrophotometer twice. The second measurement took place after 10 min under direct light and constant stirring. Commercial human SOD (Cu/Zn-SOD) (Sigma®, St. Louis, MO, USA) activity was also measured for comparison.

[9] = tested on: L. infantum; experiment: Metabolite excretion (1H-NMR of supernatants); format: cell-based; conditions: IC25, 72 h, vs untreated
Description: (§4) Active compounds can trigger metabolic alterations within parasite mitochondria. Those alterations can be proven by observing alterations in the excreted metabolites quantity. Trypanosomatids excrete different metabolites to the medium in order to get rid of the carbonate skeleton instead of oxidizing glucose to CO2 and water as vertebrates do. Each metabolite is produced in a certain area of the mitochondrion and by a certain enzyme, thus, it can be inferred that these particular zones or enzymes are being affected by drug action. For this experiment, cultures of each species with an initial concentration of 5 × 10^5 cells/mL were stored at 27 °C for 72 h with IC25 as the test dosage. After this time elapsed, cultures were centrifuged at 400× g for 10 min and supernatants were collected and examined by ^1H-NMR.

[10] = tested on: L. donovani; experiment: Metabolite excretion (1H-NMR of supernatants); format: cell-based; conditions: IC25, 72 h, vs untreated
Description: as §4

[11] = tested on: L. braziliensis; experiment: Infectivity assay in J774.2 macrophages; format: cell-based; conditions: test dosage IC25, 10 days
Description: Following a similar method as the described one in the amastigote experiment, macrophages were harvested and infected with promastigotes in their stationary phase. The test dosage was IC25 for this experiment. The coverslips were collected every 2 days for 10 days and counted in order to determine if drugs affected promastigote infection and amastigote division within the cells by measuring the infection rate (percentage of infected cells) and amastigote number per infected cell.

[12] = tested on: L. braziliensis; experiment: Metabolite excretion (1H-NMR of supernatants); format: cell-based; conditions: IC25, 72 h, vs untreated
Description: as §4

Row | Compound | IC50 ([1]; Leishmania braziliensis) [µM] | IC50 ([2]; Leishmania donovani) [µM] | IC50 ([3]; Leishmania infantum) [µM] | Selectivity Index Promastigote Forms [1] | Selectivity Index Promastigote Forms [2] | Selectivity Index Promastigote Forms [3] | IC50 ([7]; Mus musculus) [µM] | other results
1 | Glucantime [reference compound] |  |  |  | 3 | 7 | 3.5 |  | IC50 [1]: 51.4 ± 2.5 µM; IC50 [2]: 23.7 ± 0.8 µM; IC50 [3]: 50.1 ± 2.3 µM; Selectivity Index Amastigote Forms [4]: 1.7; IC50 [4]: 103 µM; Selectivity Index Amastigote Forms [5]: 2; IC50 [5]: 76.4 ± 4.1 µM; Selectivity Index Amastigote Forms [6]: 2; IC50 [6]: 84.6 ± 4.3 µM; IC50 [7]: 176 ± 10.6 µM
2 | c1cc2nc(c1)CNCCCNCCNCCNCCNCCCNC2 [Py32223] | 442 ± 5.8 | 1000 ± 78.4 | 93.4 ± 3.7 |  |  | 1 | 57.7 ± 1.9 | 
3 | c1cc2ccc1CNCCNCCCNCCNC2 [pB232] | 27.2 ± 0.9 | 743 ± 23.6 | 367 ± 10.5 | 26 | 1 | 2 | 719 ± 20.5 | 
4 | c1c2n[nH]c1CNCCCNCCCNCCCNC2 [PZ333] | 15.7 ± 0.5 | 1.4 ± 0.3 | 70 ± 0.7 | 63 | 704 | 14 | 985 ± 72.8 | Selectivity Index Amastigote Forms [5]: 579; IC50 ([5]; Leishmania donovani): 1.7 ± 0.5 µM; Acetate production and excretion variation [10]: 33.66%; D-lactate production and excretion variation [10]: 29.85%; L-alanine production and excretion variation [10]: 32.65%; Pyruvate production and excretion variation [10]: 37.88%; Succinate production and excretion variation [10]: 42.10%
5 | c1c2n[nH]c1CNCCNCCCNCCNC2 [PZ232] | 5.8 ± 0.2 | 25 ± 0.8 | 13 ± 0.4 | 116 | 27 | 52 | 674 ± 66.3 | Selectivity Index Amastigote Forms [4]: 421; IC50 ([4]; Leishmania braziliensis): 1.6 ± 0.6 µM; Selectivity Index Amastigote Forms [6]: 138; IC50 ([6]; Leishmania infantum): 4.9 ± 0.4 µM; Amastigote number/infected cell, percentage in plot key (reduction vs control) [11]: 32.4%; Acetate production and excretion variation [12]: -38.64%; D-lactate production and excretion variation [12]: -38.98%; L-alanine production and excretion variation [12]: -37.91%; Pyruvate production and excretion variation [12]: -35.69%; Succinate production and excretion variation [12]: -37.83%; Acetate production and excretion variation [9]: -11.80%; D-lactate production and excretion variation [9]: -11.58%; L-alanine production and excretion variation [9]: -13.15%; Pyruvate production and excretion variation [9]: -14.03%; Succinate production and excretion variation [9]: -16.36%
6 | c1cc2nc(c1)CNCCCNCCCNCCCNC2 [Py333] | 26.2 ± 1.1 | 0.2 | 30.4 ± 1.4 | 12 | 1549 | 10 | 310 ± 43.8 | Selectivity Index Amastigote Forms [5]: 18; IC50 ([5]; Leishmania donovani): 16.8 ± 0.5 µM
7 | c1cc2nc(c1)CNCCCNCCNCCNCCCNC2 [Py3223] | 291 ± 3.8 | 52.5 ± 2.1 | 192 ± 5.8 | 1 | 3 | 1 | 165 ± 4.9 | 
8 | c1cc2nc(c1)CNCCCNCCCCNC2 [Py34] | 29.2 ± 0.8 | 28.4 ± 0.6 | 56.7 ± 2.6 | 19 | 20 | 10 | 569 ± 45.8 | 

Continued, in another order:

Row | IC50 ([1]; Leishmania braziliensis) [µM] | IC50 ([2]; Leishmania donovani) [µM] | IC50 ([3]; Leishmania infantum) [µM] | Compound | Selectivity Index Promastigote Forms [1] | Selectivity Index Promastigote Forms [2] | Selectivity Index Promastigote Forms [3] | IC50 ([7]; Mus musculus) [µM] | other results
9 | 210 ± 5.3 | 106 ± 7.5 | 86.1 ± 3.7 | c1cc2cc(c1)CNCCCNCCCNCCCNC2 [mB333, 3,7,11,15 Tetraaza-1(2,6)-benzenacyclohexadecaphane] | 4 | 9 | 11 | 916 ± 51.6 | 
10 | 91.7 ± 3.7 | 171 ± 10.4 | 205 ± 30.7 | c1cc2cc(c1)CNCCNCCCNCCNC2 [mB232] | 7 | 4 | 3 | 667 ± 88.5 | 
11 | 2.3 ± 0.5 | 158 ± 7.3 | 95.6 ± 4.8 | c1cc2cc(c1)CNCCCNCCNCCCNC2 [mB323, 3,7,10,14 Tetraaza-1(2,6)-benzenacyclopentadecaphane] | 186 | 3 | 4 | 428 ± 22.6 | Selectivity Index Amastigote Forms [4]: 25; IC50 ([4]; Leishmania braziliensis): 17.1 ± 1.1 µM
12 | 15.6 ± 0.7 | 126 ± 3.8 | 63.4 ± 2.4 | c1cc2cc(c1)CNCCCNCCNCCNCCCNC2 [mB3223] | 93 | 11 | 23 | 1450 ± 89.7 | 
13 | 36.5 ± 1.1 | 70.5 ± 5.2 | 8.51 ± 0.6 | c1cc2nc(c1)CNCCCNCCCNCCCNCCCNCCCNC2 [Py33333] | 41 | 21 | 176 | 1500 ± 75.3 | Selectivity Index Amastigote Forms [6]: 882; IC50 ([6]; Leishmania infantum): 1.7 ± 0.2 µM; Fe-SOD activity inhibition (in words) [8]: no inhibition; Acetate production and excretion variation [9]: -20.61%; D-lactate production and excretion variation [9]: -19.58%; L-alanine production and excretion variation [9]: -19.83%; Pyruvate production and excretion variation [9]: -22.89%; Succinate production and excretion variation [9]: -20.30%
14 | 1630 ± 76.4 | 130 ± 9.5 | 90.6 ± 3.8 | c1cc2nc(c1)CNCCCNCCNCCCNCCNCCCNC2 [Py32323] |  | 1 | 1 | 85.4 ± 4.6 | 
15 | 507 ± 8.3 | 583 ± 6.9 | 484 ± 10.7 | c1cc2nc(c1)CNCCCNCCCNCCNCCCNCCCNC2 [Py33233] | 3 | 2 | 3 | 1290 ± 77.5 | 
